Values joined by “and” are separate entries in the source; they are usually repeats but may differ in a detail not shown here. Identical values can stand only once. Inconclusive results and toxic doses are left out. No stated cut-off is given here; in the data, active means T/C of 150% or more; inactive means T/C below 125%.
Tested on: L1210 leukemia ip in BDF1 mice, survival T/C
Assay: NCI In Vivo Anticancer Drug Screen. Data for tumor model L1210 Leukemia (intraperitoneal) in B6D2F1 (BDF1) mice
Settings: endpoint: mean survival time, higher = longer survival
Summary of the method: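 Transplanted-tumor mice were given test agent; controls received vehicle only. Survival readings from the two groups were divided (treated over control).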

[1] = dose: 50.0 mg/kg/injection, schedule: Q01DX001 (ip), vehicle: saline
[2] = dose: 100.0 mg/kg/injection, schedule: Q01DX001 (ip), vehicle: saline
[3] = dose: 200.0 mg/kg/injection, schedule: Q01DX001 (ip), vehicle: saline
[4] = dose: 100.0 mg/kg/injection, schedule: Q04DX003 (ip), vehicle: saline with Tween-80
[5] = dose: 400.0 mg/kg/injection, schedule: Q04DX003 (ip), vehicle: saline with Tween-80
[6] = dose: 100.0 mg/kg/injection, schedule: Q01DX001 (ip), vehicle: carboxymethylcellulose (CMC)
[7] = dose: 25.0 mg/kg/injection, schedule: Q01DX009 (ip), vehicle: saline
[8] = dose: 25.0 mg/kg/injection, schedule: Q04DX003 (ip), vehicle: saline
[9] = dose: 50.0 mg/kg/injection, schedule: Q01DX009 (ip), vehicle: saline
[10] = dose: 50.0 mg/kg/injection, schedule: Q04DX003 (ip), vehicle: saline
[11] = dose: 100.0 mg/kg/injection, schedule: Q04DX003 (ip), vehicle: saline
[12] = dose: 100.0 mg/kg/injection, schedule: Q01DX009 (ip), vehicle: Klucel (hydroxypropylcellulose) (HPC)
[13] = dose: 200.0 mg/kg/injection, schedule: Q01DX009 (ip), vehicle: Klucel (hydroxypropylcellulose) (HPC)
[14] = dose: 400.0 mg/kg/injection, schedule: Q01DX009 (ip), vehicle: Klucel (hydroxypropylcellulose) (HPC)
[15] = dose: 100.0 mg/kg/injection, schedule: Q04DX003 (ip), vehicle: Klucel (hydroxypropylcellulose) (HPC)
[16] = dose: 200.0 mg/kg/injection, schedule: Q04DX003 (ip), vehicle: Klucel (hydroxypropylcellulose) (HPC)
[17] = dose: 400.0 mg/kg/injection, schedule: Q04DX003 (ip), vehicle: Klucel (hydroxypropylcellulose) (HPC)
[18] = dose: 200.0 mg/kg/injection, schedule: Q01DX001 (ip), vehicle: carboxymethylcellulose (CMC)
[19] = dose: 400.0 mg/kg/injection, schedule: Q01DX001 (ip), vehicle: carboxymethylcellulose (CMC)
[20] = dose: 200.0 mg/kg/injection, schedule: Q04DX003 (ip), vehicle: saline
[21] = dose: 400.0 mg/kg/injection, schedule: Q04DX003 (ip), vehicle: saline

Measured: T/C

OC1COC(n2cnc3c(=S)nc[nH]c32)C(O)C1O (centres undefined)
inactive: dose: 5.0 mg/kg/injection, schedule: Q01DX001 (ip), vehicle: saline 98 % of control | dose: 10.0 mg/kg/injection, schedule: Q01DX001 (ip), vehicle: saline 102 % of control | dose: 20.0 mg/kg/injection, schedule: Q01DX001 (ip), vehicle: saline 98 % of control | dose: 40.0 mg/kg/injection, schedule: Q01DX001 (ip), vehicle: saline 96 % of control | [1] 115 % of control | dose: 80.0 mg/kg/injection, schedule: Q01DX001 (ip), vehicle: saline 98 % of control | [2] 105 % of control and 100 % of control | [3] 111 % of control and 100 % of control and 101 % of control | dose: 400.0 mg/kg/injection, schedule: Q01DX001 (ip), vehicle: saline 101 % of control and 103 % of control

c1ccc(-c2oc(-c3ccccc3)c(-c3ccccc3)c2-c2ccccc2)cc1
inactive: [4] 93 % of control | [5] 93 % of control

CCCCC/C=N\NC(N)=S
inactive: [6] 96 % of control

NC(=S)NN=C1CSSC1
inactive: dose: 1.56 mg/kg/injection, schedule: Q01DX009 (ip), vehicle: water 99 % of control | dose: 3.12 mg/kg/injection, schedule: Q01DX009 (ip), vehicle: water 96 % of control | dose: 6.25 mg/kg/injection, schedule: Q01DX009 (ip), vehicle: water 99 % of control | dose: 12.5 mg/kg/injection, schedule: Q01DX009 (ip), vehicle: water 103 % of control | dose: 12.5 mg/kg/injection, schedule: Q04DX003 (ip), vehicle: water 95 % of control | dose: 25.0 mg/kg/injection, schedule: Q01DX009 (ip), vehicle: water 103 % of control

O=S(=O)(Cl)c1ccccc1Cl
inactive: dose: 50.0 mg/kg/injection, schedule: Q01DX001 (ip), vehicle: Klucel (hydroxypropylcellulose) (HPC) 101 % of control

COc1c2c(cc3c1C(Cl)N(C)CC3)OCO2 (centres undefined)
inactive: [7] 98 % of control | [8] 103 % of control | [9] 104 % of control | [10] 97 % of control | [11] 98 % of control and 102 % of control

CC(=O)n1cc(/C=C2\N=C(c3ccccc3)OC2=O)c2ccccc21
inactive: [12] 94 % of control | [13] 96 % of control | [14] 94 % of control

Nc1ccccc1Oc1ccccc1
inactive: [12] 94 % of control | [15] 97 % of control | [13] 97 % of control | [16] 98 % of control | [14] 100 % of control | [17] 101 % of control

CNc1ccc(C(=O)C2CC2)cc1
inactive: dose: 100.0 mg/kg/injection, schedule: Q01DX009 (ip), vehicle: saline with Tween-80 92 % of control | [4] 100 % of control | dose: 200.0 mg/kg/injection, schedule: Q01DX009 (ip), vehicle: saline with Tween-80 98 % of control | dose: 200.0 mg/kg/injection, schedule: Q04DX003 (ip), vehicle: saline with Tween-80 100 % of control | [5] 86 % of control

O=C1CCCc2cc(Cl)c(Cl)cc21
inactive: [12] 108 % of control | [13] 96 % of control | [14] 101 % of control

OCC1CCC(n2cnc3c(=S)nc[nH]c32)C1 (centres undefined)
inactive: [6] 102 % of control | [18] 102 % of control | [19] 96 % of control

COc1ccccc1N1C(N)=NC(N)=NC1(C)C
inactive: [7] 104 % of control | [8] 113 % of control | [9] 98 % of control and 100 % of control | [10] 97 % of control | [11] 92 % of control

Nc1nc(NCCO)c(NC=O)c(=O)[nH]1
inactive: dose: 100.0 mg/kg/injection, schedule: Q01DX Z (ip), vehicle: methylcellulose (MC) 103 % of control | dose: 128.0 mg/kg/injection, schedule: Q01DX Z (ip), vehicle: methylcellulose (MC) 95 % of control | dose: 222.0 mg/kg/injection, schedule: Q01DX Z (ip), vehicle: methylcellulose (MC) 94 % of control | dose: 333.0 mg/kg/injection, schedule: Q01DX Z (ip), vehicle: methylcellulose (MC) 97 % of control

CCOc1ccc(NC(=O)COc2ccc(Cl)cc2)cc1
inactive: [12] 88 % of control | [15] 93 % of control | [13] 92 % of control | [16] 101 % of control | [14] 87 % of control | [17] 101 % of control

CC(=O)OS(=O)(=O)c1ccc(C)cc1
inactive: dose: 100.0 mg/kg/injection, schedule: Q01DX009 (ip), vehicle: saline 98 % of control | [11] 94 % of control | dose: 200.0 mg/kg/injection, schedule: Q01DX009 (ip), vehicle: saline 90 % of control | [20] 92 % of control | [21] 89 % of control

NC(CSCc1ccccc1)(CSCc1ccccc1)C(=O)O
inactive: dose: 25.0 mg/kg/injection, schedule: Q01DX009 (ip), vehicle: other 107 % of control | dose: 50.0 mg/kg/injection, schedule: Q01DX009 (ip), vehicle: other 105 % of control | dose: 100.0 mg/kg/injection, schedule: Q01DX009 (ip), vehicle: other 100 % of control | dose: 200.0 mg/kg/injection, schedule: Q01DX009 (ip), vehicle: other 91 % of control | dose: 400.0 mg/kg/injection, schedule: Q01DX009 (ip), vehicle: other 113 % of control

CC(C)(C)OC(=O)c1ccc(C#N)cc1
inactive: [6] 96 % of control | [18] 100 % of control | [19] 100 % of control

NC(N)=N/N=C/c1cccc(OCC(=O)O)c1
inactive: dose: 15.0 mg/kg/injection, schedule: Q01DX Z (ip), vehicle: carboxymethylcellulose (CMC) 87 % of control | dose: 30.0 mg/kg/injection, schedule: Q01DX Z (ip), vehicle: carboxymethylcellulose (CMC) 92 % of control | dose: 60.0 mg/kg/injection, schedule: Q01DX Z (ip), vehicle: carboxymethylcellulose (CMC) 92 % of control | dose: 60.0 mg/kg/injection, schedule: Q01DX Z (oral), vehicle: carboxymethylcellulose (CMC) 100 % of control | dose: 120.0 mg/kg/injection, schedule: Q01DX Z (ip), vehicle: carboxymethylcellulose (CMC) 94 % of control | dose: 120.0 mg/kg/injection, schedule: Q01DX Z (oral), vehicle: carboxymethylcellulose (CMC) 100 % of control | dose: 240.0 mg/kg/injection, schedule: Q01DX Z (oral), vehicle: carboxymethylcellulose (CMC) 94 % of control | dose: 480.0 mg/kg/injection, schedule: Q01DX Z (oral), vehicle: carboxymethylcellulose (CMC) 100 % of control

COC(=O)/C(=C\c1cccnc1)NC(=O)c1ccccc1
inactive: [1] 100 % of control | [2] 100 % of control | [11] 97 % of control | [3] 103 % of control | [20] 95 % of control | [21] 97 % of control

Cc1ccc2c(c1)CN(C13CC4CC(CC(C4)C1)C3)CO2
inactive: dose: 100.0 mg/kg/injection, schedule: Q04DX003 (ip), vehicle: saline sonified 91 % of control | dose: 200.0 mg/kg/injection, schedule: Q04DX003 (ip), vehicle: saline sonified 102 % of control | dose: 400.0 mg/kg/injection, schedule: Q04DX003 (ip), vehicle: saline sonified 93 % of control

— PubChem BioAssay AID248 (DTP/NCI, 2004)
